Results as given in patent US7652037B2, “Methods of lowering lipid levels in a mammal” (City Of Hope, priority 2003, dated 2010).

What was measured:
Type in all cases: in vivo, rat
STZ-Diabetic Rats [1] = assay: Nitrotyrosine staining of kidney
Protocol: Nitrotyrosine, a marker for protein oxidation, was used as an index of oxidative tissue damage caused by reactive nitrogen species. Immunohistochemical detection of nitrotyrosine was performed as reported previously (Forbes et al., Diabetes 51:3274-3282, 2002) and followed in this study with little modification. Briefly, formalin-fixed kidney sections (5 μm thick), taken from representative rats from each treatment group at 32 weeks, were mounted on slides, dewaxed and hydrated. After incubation with Proteinase K for 10 minutes, sections were incubated in 3% hydrogen peroxide for 20 minutes, blocked with normal porcine serum for 20 minutes, and then stained with commercially available rabbit polyclonal anti-nitrotyrosine antibodies for 1 hour. After rinsing with DAKO rinse buffer, sections were incubated with biotinylated anti-rabbit IgG for 25 minutes, followed by incubation with avidin-biotin horseradish peroxidase complex for 25 minutes.

STZ-Diabetic Rats [2] = assay: AGE immunohistochemistry of kidney (6D12 anti-CML antibody)
Protocol: For immunohistochemical AGE staining, formalin-fixed […] embedded sections (2 μm thick) were mounted on slides coated with 2-aminopropyltriethoxy silane, baked for 3 hours at 58° C., deparaffinized, rinsed with 3% hydrogen peroxide, and incubated with Proteinase K (0.5 mg/mL) for 5 minutes at room temperature. These sections were washed with rinse buffer and blocked with Protein Blocking Agent for 5 minutes and subsequently incubated with 6D12 anti-AGE mouse monoclonal antibody specific for CML for 30 minutes at room temperature. After washing with rinse buffer, the sections were incubated with EnVision™ with labeled polymer peroxidase-conjugated mouse anti-IgG for 30 minutes at room temperature, followed by detection with 3,3′-diaminobenzidine tetrahydrochloride solution as chromogen and 50% hematoxylin as counterstain.

STZ-Diabetic Rats [3] = assay: Total plasma/serum triglycerides and cholesterol in STZ-diabetic rats (Example 2); details: 32 weeks, towards levels of non-diabetic animals
Protocol: Male Sprague-Dawley rats (about 175 to 200 g) were adapted for one week prior to treatment, then rendered diabetic by intra-peritoneal injection of STZ (65 mg/kg in citrate buffer, pH 4.5) after an overnight fast. Control (non-diabetic) animals were injected with the buffer only. Diabetes was confirmed by measuring the plasma glucose concentrations 7 days after Streptozotocin (STZ)-injection. Only animals with a plasma glucose concentration greater than 20 mmol were classified as diabetic and used in the study. These diabetic rats were divided randomly into an untreated diabetic control group and a diabetic treatment group. The treatment group received an LR compound at 50 mg/l in their drinking water throughout the duration of the study (32 weeks for LR-90; 30 weeks for LR-9 and LR-74). All animals were housed individually and were given free access to food and water.
Blood (from the tail vein) and urine samples were collected from rats for glycemic control analysis and albuminuria measurements. Glycemia was monitored every 8 weeks by measuring plasma glucose and glycated hemoglobin. Plasma or serum also was tested for total cholesterol and total triglycerides. Progression of renal dysfunction was assessed by measuring urinary albumin to creatinine ratio (UA/Cr) and serum or plasma creatinine. […]

Substance: methylene bis(4,4′-(2-chlorophenylureidophenoxyisobutyric acid) [LR-90]
- nitrotyrosine staining in renal cortical tubules (STZ-Diabetic Rats [1]): decreased the overall oxidative damage
- AGE staining in kidney glomeruli and cortical tubules (STZ-Diabetic Rats [2]): visibly reduced
- reduction of serum cholesterol (STZ-Diabetic Rats [3]): 50%
- reduction of serum triglycerides (STZ-Diabetic Rats [3]): 50%
